≈ marks a conversion by molar mass, not a printed value. Like-named read-outs stand apart in the source and are kept apart here. Each block holds one molecule with its values, some of them ahead of it.
Tests used:
S. pneumoniae A9585 = test: Antibiotic spectrum in nutrient broth, MIC; assay type: cell-based; conditions: Streptococcus pneumoniae, 10^-3 dilution of overnight culture, 45% AAB + 5% serum + 50% broth, BL-S1052 adjusted for 97.5% content of BL-S640
Excerpt: (§1) Antibiotic Spectrum in Nutrient Broth
(§2) *45% AAB + 5% serum + 50% broth listed above.
(§3) **Dilution of overnight broth culture.
(§4) ^(1) Adjusted for 97.5% content of BL-S640. In other words, the
(§5) numerical values are lowered, i.e. improved. This adjustment was also mad
(§6) in the tests reported below or in the alternative, a larger weight was
(§7) used to provide equivalent dosage.

Str. pyogenes A9604 = test: Antibiotic spectrum in nutrient broth, MIC; assay type: cell-based; conditions: Streptococcus pyogenes, 10^-3 dilution of overnight culture, 45% AAB + 5% serum + 50% broth, BL-S1052 adjusted for 97.5% content of BL-S640
Excerpt: as §1, §2, §3, §4, §5, §6, §7

[1] = Paper chromatograms of rat urine for antibiotically active metabolites after IM administration; assay type: in vivo; conditions: rat urine 0-2 and 2-4 hours
Description: Paper chromatograms were run on rat urine collected between 0 and 2 and between 2 and 4 hours, following IM administration of BL-S1052 and BL-S640, for the detection of antibiotically active metabolites using descending chromatography with system No. 9 (butyl acetate:n-butanol:glacial acetic acid:H2 O = 80:15:40:24).

Bio-assay (mcg./mg.) = test: Bio-assay (mcg./mg.)
Description: 7-[D-α-amino-α-(p-hydroxyphenyl)acetamido]-3-(1,2,3-triazol-5-ylthiomethyl)-3-cephem-4-carboxylic acid methanol solvate (15 g.) was slurried in 60 ml. of water. The pH was raised to 6.5 by addition of 4N NaOH and the mixture was passed through a 200 mesh screen. The reaction mixture was slurried at room temperature for 2 hours, the pH being maintained at 6.5 during this period. The crystals were removed by filtration, washed with 20 ml. of water and air dried at 37° C. for 24 hours to give 11.5 g. of title crystalline product. Bio assay = 924 mcg./mg. (average % H2 O, K.F. = 5.26).
7-[D-α-amino-α-(p-hydroxyphenyl)acetamido]-3-(1,2,3-triazol-5-ylthiomethyl)-3-cephem-4-carboxylic acid methanol solvate (200 mesh; 10.0 g.) substantially free of propylene glycol is slurried in 30-40 ml. of deionized water at ambient room temperature (20°-25° C.) to give a pH 3-4 aqueous suspension. NaOH (40%) is slowly added with rapid stirring to bring the pH to 6.3-6.7. The mixture is slurried at pH 6.3-6.7 for 2 hours. The crystals are removed by filtration, washed with water and air dried at room temperature for 24 hours to give a 75-80% weight yield of 950-1000 mcg./mg. crystals of 7-[D-α-amino-α-(p-hydroxyphenyl)acetamido]-3-(1,2,3-triazol-5-ylthiomethyl)-3-cephem-4-carboxylic acid dihydrate. […] H2 O, K.F. = 6.56.

S. aureus BX1633 = test: Antibiotic spectrum in nutrient broth, MIC; assay type: cell-based; conditions: Staphylococcus aureus
Excerpt: as §1, §3
(§8) This adjustment was also mad
as §6, §7

Ent. cloacae A9659 = test: Antibiotic spectrum in nutrient broth, MIC; assay type: cell-based; conditions: Enterobacter cloacae, 10^-4 dilution, BL-S1052 adjusted for 97.5% content of BL-S640
Excerpt: as §1, §3, §8, §6, §7

Pr. morganii A15153 = test: Antibiotic spectrum in nutrient broth, MIC; assay type: cell-based; conditions: Morganella morganii, 10^-4 dilution, BL-S1052 adjusted for 97.5% content of BL-S640
Excerpt: as §1, §3, §8, §6, §7

Ent. cloacae A9656 = test: Antibiotic spectrum in nutrient broth, MIC; assay type: cell-based; conditions: Enterobacter cloacae, 10^-4 dilution, BL-S1052 adjusted for 97.5% content of BL-S640
Excerpt: as §1, §3, §4, §5, §6, §7

[2] = system: S. aureus Meth-Res A15097; test: Antibiotic spectrum in nutrient broth, MIC; assay type: cell-based; conditions: Staphylococcus aureus; 10^-3 dilution; BL-S1052 adjusted for 97.5% content of BL-S640
Excerpt: as §1, §3, §4, §5, §6, §7

Ps. Aeruginosa A9843A = test: Antibiotic spectrum in nutrient broth, MIC; assay type: cell-based; conditions: Pseudomonas aeruginosa
Excerpt: as §1, §3, §4, §5, §6, §7

Sal. enteritidis A9531 = test: Antibiotic spectrum in nutrient broth, MIC; assay type: cell-based; conditions: Salmonella enterica, 10^-4 dilution, BL-S1052 adjusted for 97.5% content of BL-S640
Excerpt: as §1, §3, §4, §5, §6, §7

S. aureus Smith A9537 = test: Antibiotic spectrum in nutrient broth, MIC; assay type: cell-based; conditions: Staphylococcus aureus, BL-S1052 adjusted for 97.5% content of BL-S640
Excerpt: as §1, §3, §4, §5, §6, §7

E. coli A9675 = test: Antibiotic spectrum in nutrient broth, MIC; assay type: cell-based; conditions: Escherichia coli, 10^-4 dilution, BL-S1052 adjusted for 97.5% content of BL-S640
Excerpt: as §1, §3, §4, §5, §6, §7

E. coli Juhl A15119 = test: Antibiotic spectrum in nutrient broth, MIC; assay type: cell-based; conditions: Escherichia coli, JUHLA15119; 10^-4 dilution; BL-S1052 adjusted for 97.5% content of BL-S640
Excerpt: as §1, §3, §4, §5, §6, §7

K. pneumoniae A9977 = test: Antibiotic spectrum in nutrient broth, MIC; assay type: cell-based; conditions: Klebsiella pneumoniae, 10^-4 dilution, BL-S1052 adjusted for 97.5% content of BL-S640
Excerpt: as §1, §3, §4, §5, §6, §7

Ser. marcescens A20019 = test: Antibiotic spectrum in nutrient broth, MIC; assay type: cell-based; conditions: Serratia marcescens, 10^-4 dilution, BL-S1052 adjusted for 97.5% content of BL-S640
Excerpt: as §1, §3, §4, §5, §6, §7

K. pneumoniae A15130 = test: Antibiotic spectrum in nutrient broth, MIC; assay type: cell-based; conditions: Klebsiella pneumoniae, 10^-4 dilution, BL-S1052 adjusted for 97.5% content of BL-S640
Excerpt: as §1, §3, §4, §5, §6, §7

Ent. cloacae A9657 = test: Antibiotic spectrum in nutrient broth, MIC; assay type: cell-based; conditions: Enterobacter cloacae, 10^-4 dilution, BL-S1052 adjusted for 97.5% content of BL-S640
Excerpt: as §1, §3, §4, §5, §6, §7

Pr. mirabilis A9900 = test: Antibiotic spectrum in nutrient broth, MIC; assay type: cell-based; conditions: Proteus mirabilis, 10^-4 dilution, BL-S1052 adjusted for 97.5% content of BL-S640
Excerpt: as §1, §3, §4, §5, §6, §7

Water solubility = assay type: physicochemical
Description: The sodium and potassium salts of formula I may be dissolved in water to form relatively concentrated solutions of at least 250 mg./ml. of activity. Concentrations of 250 mg./ml. of activity (pH 5.7-7.2) of these salts have acceptable aqueous stabilities.
g. Water solubility = Approximately 10 mg./ml. in water at 23° C.
3. Solubility = greater than 400 mg./ml.

[3] = Liquid chromatography, % free BL-S640 present (hydrolysis in solution); assay type: physicochemical; conditions: 1 mg./ml.
Description: 5. Liquid Chromatography (concentration = 1 mg./ml.)
Time in Hours % Free BL-S640 Present

[4] = Urinary recovery after IM administration to rats; assay type: in vivo; conditions: rat, urine, read-out: Urinary recovery, percentage of administered dose recovered; for dose excreted at 6 h: 0-6 hr
Description: Urinary Recovery after IM
Administration of 50 and 10 mg./kg. to Rats
(§9) The compounds were prepared in 0.01% phosphate buffer. BL-S640 was used a
(§10) standard for all compounds.

[5] = Mouse blood levels after PO administration; assay type: in vivo; conditions: PO 100 mg./kg.
Description: ______________________________________
Mouse Blood Levels after PO
Administration of 100 mg./kg. Body Weight
The compounds were prepared in Tween-CMC. BL-S640 was used as standard fo

[6] = Mouse blood levels after IM administration; assay type: in vivo; conditions: IM 10 mg./kg.
Description: Mouse Blood Levels after IM
Administration of 10 mg./kg. Body Weight
Blood Levels (mcg./ml.)
as §9, §10

[7] = Loss of bioactivity on storage at elevated temperatures; assay type: physicochemical
Description: h. Loss of bioactivity on storage at elevated temperatures: 100° C., 24 hours = <6%; 48 hours = <12%; 56° C., 1 month = <10%.

Compound: O=C(O)C1=C(CSc2c[nH]nn2)CSC2C(N3C(=O)C(c4ccc(O)cc4)NC3c3ccco3)C(=O)N12 (centres unmarked) [BL-S1052]
MIC (S. pneumoniae A9585): 0.06 µg/mL
MIC (Str. pyogenes A9604): 0.03 µg/mL
Hydrolysis of the derivative to parent compound BL-S640 and its presumed metabolite [1]: complete hydrolysis
Antibiotically active spots in urine ([1]; paper chromatography system No. 9): Two spots identically located
Bio-assay (Bio-assay (mcg./mg.)): 775 to 800 µg/mg
MIC (S. aureus BX1633; BX1633): 0.25 µg/mL (≈ 0.462 µM)
MIC (S. aureus BX1633; BX1633, 10^-2 dilution, A9606, BL-S1052 adjusted for 97.5% content of BL-S640, read-out: MIC): 2 µg/mL (≈ 3.7 µM)
MIC (Ent. cloacae A9659): 32 µg/mL (≈ 59.2 µM)
MIC (Pr. morganii A15153): 32 µg/mL (≈ 59.2 µM)
MIC (Ent. cloacae A9656): > 125 µg/mL
MIC [2]: 4 µg/mL (≈ 7.4 µM)
MIC (Ps. Aeruginosa A9843A): > 125 µg/mL
MIC (Sal. enteritidis A9531): 0.13 µg/mL (≈ 0.24 µM)
MIC (S. aureus Smith A9537; SMITHA9537, 10^-4 dilution, nutrient broth): 0.13 µg/mL (≈ 0.24 µM)
MIC (S. aureus Smith A9537; SMITHA9537, +50% serum, 10^-4 dilution): 2 µg/mL (≈ 3.7 µM)
MIC (E. coli A9675): 2 µg/mL (≈ 3.7 µM)
MIC (E. coli Juhl A15119): 1 µg/mL (≈ 1.85 µM)
MIC (K. pneumoniae A9977): 0.5 µg/mL (≈ 0.925 µM)
MIC (Ser. marcescens A20019): > 125 µg/mL
MIC (K. pneumoniae A15130): 1 µg/mL (≈ 1.85 µM)
MIC (Ent. cloacae A9657): 0.5 µg/mL (≈ 0.925 µM)
MIC (Pr. mirabilis A9900): 0.5 µg/mL (≈ 0.925 µM)
solubility (Water solubility): > 400 mg/mL
% Free BL-S640 Present ([3]; 0 hours): 69.2%
% free BL-S640 present at 1 h ([3]; 1 hour): 74.2%
% free BL-S640 present at 2 h ([3]; 2 hours): 94.5%
dose excreted at 6 h ([4]; 10 mg/kg, IM 10 mg./kg.): 21.7%
dose excreted at 24 h ([4]; 10 mg/kg, IM 10 mg./kg., 0-24 hr): 24.1%
dose excreted at 24 h ([4]; 10 mg/kg, IM 10 mg./kg., 6-24 hr): 2.4%
dose excreted at 6 h ([4]; 50 mg/kg, IM 50 mg./kg.): 40.3%
dose excreted at 24 h ([4]; 50 mg/kg, IM 50 mg./kg., 0-24 hr): 42.4%
dose excreted at 24 h ([4]; 50 mg/kg, IM 50 mg./kg., 6-24 hr): 2.1%
concentration at 0.5 h ([5]; 0.5 hr): 45200 ng/mL
concentration at 1 h ([5]; 1 hr): 48100 ng/mL
concentration at 2 h ([5]; 2 hr): 31900 ng/mL
concentration at 3.5 h ([5]; 3.5 hr): 14400 ng/mL
concentration at 0.25 h ([6]; 0.25 hr): 15100 ng/mL
concentration at 0.5 h ([6]; 0.5 hr): 15100 ng/mL
concentration at 1 h ([6]; 1 hr): 11500 ng/mL
concentration at 1.5 h ([6]; 1.5 hr): 7800 ng/mL

Compound: NC(C(=O)NC1C(=O)N2C(C(=O)O)=C(CSc3c[nH]nn3)CSC12)c1ccc(O)cc1 [7-[D-α-amino-α-(p-hydroxyphenyl)acetamido]-3-(1,2,3-triazol-5-ylthiomethyl)-3-cephem-4-carboxylic acid methanol solvate]
Bio-assay (Bio-assay (mcg./mg.)): 850 to 900 µg/mg

degraded at 720 h ([7]; 56° C., 1 month): < 10%
degraded at 24 h ([7]; 100° C., 24 hours): < 6%
degraded at 48 h ([7]; 100° C., 48 hours): < 12%
Compound: NC(C(=O)NC1C(=O)N2C(C(=O)O)=C(CSc3c[nH]nn3)CSC12)c1ccc(O)cc1 [7-[D-α-amino-α-(p-hydroxyphenyl)acetamido]-3-(1,2,3-triazol-5-ylthiomethyl)-3-cephem-4-carboxylic acid propylene glycol solvate]
